Results reported in patent US11534457B2, “Use of dextran sulfate” (priority 2017, dated 2022).

Test system: closed-head diffuse severe TBI (sTBI)
Assay: sTBI in rats, dose study, HPLC of energy metabolites, antioxidants, oxidative/nitrosative stress biomarkers, NAA (Example 7)
Assay type: in vivo, Male Wistar rats
Procedure: Male Wistar rats (n=160) of 300-350 g body weight were used in this study. They were fed with standard laboratory diet and water ad libitum in a controlled environment.
As the accepted anesthetic mixture, animals received 35 mg/kg b.w. ketamine and 0.25 mg/kg body weight midazolam by intramuscular injection. Diffuse sTBI was induced according to the “weight drop” impact acceleration model set up by Marmarou et al. J. Neurosurg. 1994, 80: 291-300. This model causes diffuse axonal injury and it is able to reproduce the physical and mechanical characteristics of the diffuse TBI in humans.
Severe TBI was induced by dropping a 450 g weight from 2 meters height onto the rat head protected by a helmet (metal disk previously fixed on the skull using dental cement) in order to uniformly distribute the mechanical force to the brain. Rats were placed prone on a bed of specific polyurethane foam inserted in a special container; this foam dissipates the major part of the potential energy (deriving from the mechanical forces) and prevents any rebound of the animal after the impact that could produce spinal damages.
After 2 or 7 days from TBI induction, rats were anesthetized again and then immediately sacrificed. These time points are coincident with the worst biochemical derangement (2 days) or, in the case of a mildly injured brain, with a full metabolic recovery (7 days).
The drug treatment consisted in a subcutaneous injection of 0.5 ml of LMW-DS (Tikomed) and administered at 3 different concentrations (1, 5 and 15 mg/kg body weight), according to the schematic protocol described below.
(§1) Rats subjected to sTBI and receiving a single administration of LMW-DS after 30 minutes post-TBI, with sacrifice at 2 days post-TBI. Animals were divided in the following subgroups: • 1. 12 animals subjected to sTBI and treated with 1 mg/kg b.w. LMW-DS • 2. 12 animals subjected to sTBI and treated with 5 mg/kg b.w. LMW-DS • 3. 12 animals subjected to sTBI and treated with 15 mg/kg b.w. LMW-DS
as §1, with “at 7” for “at 2”
Rats (n=12) subjected to sTBI and receiving repeated administrations of the maximal dose of LMW-DS (15 mg/kg b.w.) after 30 minutes, 3 days and 5 days post-TBI, with sacrifice at 7 days post-TBI. Four additional rats were used for the histo-morphological studies. Total rats in this group: n=16
To minimize metabolite loss, an in vivo craniectomy was performed in all animals during anesthesia. The rat skull was carefully removed, the brain was exposed, sharply cut along the sagittal fissure and the two hemispheres were separated. The hemispheres dedicated to biochemical analyses were freeze-clamped by aluminum tongues pre-cooled in liquid nitrogen and then immersed in liquid nitrogen. The freeze-clamping procedure was introduced to accelerate freezing of the tissue, thus minimizing potential metabolite loss.
Tissue homogenization for metabolite analyses was effected as described below. After the wet weight (w.w.) determination, the frozen hemispheres were placed into 7 ml of ice-cold, nitrogen-saturated, precipitating solution (1:10 w/v) composed by CH3CN+10 mM KH2PO4, pH 7.40, (3:1; v:v), and the homogenization was performed using an Ultra-Turrax homogenizer set at 24,000 rpm/min (Janke & Kunkel, Staufen, Germany). After centrifugation at 20,690×g, for 10 min at 4° C., the clear supernatants were saved, pellets were supplemented with an aliquot of 10 mM KH2PO4 and homogenized again as described above and saved overnight at −20° C. in order to obtain a complete recovery of aqueous phase from tissue. […]

[1] = 1 mg/kg s.c. single, 30 min post-sTBI, sacrifice 2 days
[2] = 15 mg/kg s.c. single, 30 min post-sTBI, sacrifice 2 days
[3] = 2 days post sTBI, 5 or 15 mg/kg b.w.
[4] = rats, 7 days post-sTBI, single administration of 15 mg/kg b.w.

## low molecular weight dextran sulfate [LMW-DS]
[1]
  CDP choline, brain concentration: 8.23 ± 1.22 nmol/g w.w.
  GDP Glucose, brain concentration: 65.66 ± 41.61 nmol/g w.w.
  UDP-Glc, brain concentration: 45.14 ± 6.68 nmol/g w.w.
  UDP-GlcNac, brain concentration: 96.62 ± 8.80 nmol/g w.w.
1 mg/kg s.c. single, 30 min post-sTBI, sacrifice 2 days, adimensional
  NAD^+/NADH ratio, brain: 33.91 ± 9.32
1 mg/kg s.c. single, 30 min post-sTBI, sacrifice 7 days
  NAD^+/ADH, brain: 33.91 ± 9.32
5 mg/kg s.c. single, 30 min post-sTBI, sacrifice 2 days
  GDP Glucose, brain concentration: 83.81 ± 37.35 nmol/g w.w.
[2]
  CYTIDINE, brain concentration: 11.46 ± 2.07 nmol/g w.w.
  GDP Glucose, brain concentration: 84.24 ± 37.54 nmol/g w.w.
  UDP-Glc, brain concentration: 43.41 ± 06.43 nmol/g w.w.
  β-PSEUDOURIDINE, brain concentration: 7.84 ± 1.57 nmol/g w.w.
2 days post sTBI
  ascorbic acid and reduced glutathione (GSH): significantly ameliorated
  cerebral tissue nitrites and nitrates: evident decrease
  concentrations of UTP and ADP: No effects
  de-phosphorylated purines and pyrimidines: positively affected
2 days post sTBI, 15 mg/kg b.w.
  nicotinic coenzyme pool and NAD/NADH ratio: effective only at the maximal dose tested
[3]
  Acetyl-CoA: partial rescue
  whole brain NAA: significantly higher than values found in sTBI rats
2 days post sTBI, all three dosages (1, 5, 15 mg/kg)
  high energy phosphates (ATP, GTP, and CTP) vs sTBI: Significantly higher values
7 days post impact (untreated sTBI 35%)
  ATP level, lower than the value of controls: 16%
7 days post impact (untreated sTBI 48%)
  NAA concentration, lower than the value of controls: 16%
7 days post sTBI
  de-phosphorylated purines and pyrimidines: positively affected
7 days post sTBI, 5 or 15 mg/kg b.w. (single and repeat)
  CoA-SH and Acetyl-CoA: Remarkable positive effects
7 days post sTBI, any dose tested
  ATP: significant increases
7 days post sTBI, excluding the lowest dose
  concentrations of nicotinic coenzymes: significant improvement
7 days post sTBI, highest single and repeat dose
  ascorbic acid and GSH, with decrease of nitrites and nitrates: particularly beneficial
7 days post sTBI, increasing dose
  ATP/ADP ratio: progressively increased
7 days post sTBI, increasing single doses or repeat maximal dose
  whole brain NAA: dose dependent increase
7 days post sTBI, more evident above 1 mg/kg b.w.
  cerebral energy metabolism: general improvement
7 days post sTBI, single and repeat 15 mg/kg b.w.
  NAD+ level and NAD/NADH ratio: able to normalize NAD+ level and to restore the correct NAD/NADH ratio
rats, 7 days post-sTBI, repeated administration of 15 mg/kg b.w.
  ADENOSINE concentration in deproteinized brain homogenates: 40.84 ± 30.25 nmol/g w.w.
rats, 7 days post-sTBI, single administration of 1 mg/kg b.w.
  GMP concentration in deproteinized brain homogenates: 113.06 ± 53.51 nmol/g w.w.
[4]
  ADENOSINE concentration in deproteinized brain homogenates: 55.95 ± 41.44 nmol/g w.w.
  CDP choline concentration in deproteinized brain homogenates: 10.06 ± 3.23 nmol/g w.w.
